Test results taken from ChEMBL document CHEMBL1201862, “PubChem BioAssay data set” (2004).
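Protocol summary: plate cells (96-well), add compound at 5 concentrations, incubate 48 h, interpolate endpoints linearly. GI50 = concentration required for 50% inhibition of growth.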 Active and inactive are the calls of the source. No stated cut-off is given here; in the data, active = GI50 up to about 1.1 µM and inactive = higher.

Columns and labels:
Experiment in all cases: NCI-60 cell line screen, 48 h
SK-MEL-2 = test system: SK-MEL-2
Malme-3M = test system: Malme-3M
786-0 = test system: 786-0
OVCAR-3 = test system: OVCAR-3
U-251 = test system: U-251
T47D = test system: T47D
NCI-H226 = test system: NCI-H226
NCI-H23 = test system: NCI-H23
OVCAR-4 = test system: OVCAR-4
SK-MEL-5 = test system: SK-MEL-5
CAKI-1 = test system: CAKI-1
MOLT-4 = test system: MOLT-4
SNB-19 = test system: SNB-19
CCRF-CEM = test system: CCRF-CEM
SNB-75 = test system: SNB-75
HCT-15 = test system: HCT-15
NCI-H522 = test system: NCI-H522
DU-145 = test system: DU-145
SF-268 = test system: SF-268
OVCAR-8 = test system: OVCAR-8
UACC-62 = test system: UACC-62
SK-MEL-28 = test system: SK-MEL-28
A498 = test system: A498
ACHN = test system: ACHN
NCI-H460 = test system: NCI-H460
TK-10 = test system: TK-10
IGROV-1 = test system: IGROV-1
SN12C = test system: SN12C
MCF7 = test system: MCF7
M14 = test system: M14
SF-295 = test system: SF-295
BT-549 = test system: BT-549
K562 = test system: K562
HOP-62 = test system: HOP-62
EKVX = test system: EKVX
MDA-MB-231 = test system: MDA-MB-231
UACC-257 = test system: UACC-257
MDA-N = test system: MDA-N
HT-29 = test system: HT-29
SW-620 = test system: SW-620
KM12 = test system: KM12
HOP-92 = test system: HOP-92
SK-OV-3 = test system: SK-OV-3
COLO 205 = test system: COLO 205
RXF 393 = test system: RXF 393
NCI/ADR-RES = test system: NCI/ADR-RES
MDA-MB-435 = test system: MDA-MB-435
UO-31 = test system: UO-31
PC-3 = test system: PC-3
A549 = test system: A549
Hs-578T = test system: Hs-578T
OVCAR-5 = test system: OVCAR-5
LOX IMVI = test system: LOX IMVI
HL-60 = test system: HL-60
HCT-116 = test system: HCT-116
RPMI-8226 = test system: RPMI-8226
HCC 2998 = test system: HCC 2998
SF-539 = test system: SF-539

C1=C2C3=[N+](CCCC3)CC2Cc2ccsc21 (configuration not stated)
GI50 (SK-MEL-2): > 100 µM (inactive) | GI50 (Malme-3M): 63 µM (inactive) | GI50 (786-0): > 100 µM (inactive) | GI50 (OVCAR-3): 84.1 µM (inactive) | GI50 (U-251): 28.7 µM (inactive) | GI50 (T47D): 22.8 µM (inactive) | GI50 (NCI-H226): > 100 µM (inactive) | GI50 (NCI-H23): > 100 µM (inactive) | GI50 (OVCAR-4): 84.3 µM (inactive) | GI50 (SK-MEL-5): 66.5 µM (inactive) | GI50 (CAKI-1): > 100 µM (inactive) | GI50 (MOLT-4): > 100 µM (inactive) | GI50 (SNB-19): 56.2 µM (inactive) | GI50 (CCRF-CEM): > 100 µM (inactive) | GI50 (SNB-75): 93.8 µM (inactive) | GI50 (HCT-15): > 100 µM | GI50 (NCI-H522): 62.8 µM (inactive) | GI50 (DU-145): > 100 µM (inactive) | GI50 (SF-268): > 100 µM (inactive) | GI50 (OVCAR-8): 82.6 µM (inactive) | GI50 (UACC-62): > 100 µM (inactive) | GI50 (SK-MEL-28): > 100 µM (inactive) | GI50 (A498): 52.8 µM (inactive) | GI50 (ACHN): > 100 µM (inactive) | GI50 (NCI-H460): 38 µM (inactive) | GI50 (TK-10): 87.7 µM (inactive) | GI50 (IGROV-1): > 100 µM (inactive) | GI50 (SN12C): > 100 µM (inactive) | GI50 (MCF7): > 100 µM (inactive) | GI50 (M14): 71.3 µM (inactive) | GI50 (SF-295): 55.3 µM (inactive) | GI50 (BT-549): 81.3 µM (inactive) | GI50 (K562): > 100 µM (inactive) | GI50 (HOP-62): > 100 µM (inactive) | GI50 (EKVX): 52.6 µM (inactive) | GI50 (MDA-MB-231): > 100 µM (inactive) | GI50 (UACC-257): 33.9 µM (inactive) | GI50 (MDA-N): > 100 µM (inactive) | GI50 (HT-29): > 100 µM (inactive) | GI50 (SW-620): > 100 µM (inactive) | GI50 (KM12): 42.4 µM (inactive) | GI50 (HOP-92): 69.5 µM (inactive) | GI50 (SK-OV-3): > 100 µM (inactive) | GI50 (COLO 205): > 100 µM (inactive) | GI50 (RXF 393): 65 µM (inactive) | GI50 (NCI/ADR-RES): > 100 µM (inactive) | GI50 (MDA-MB-435): > 100 µM (inactive) | GI50 (UO-31): > 100 µM (inactive) | GI50 (PC-3): 45.1 µM (inactive) | GI50 (A549): 25 µM (inactive) | GI50 (Hs-578T): > 100 µM (inactive) | GI50 (OVCAR-5): > 100 µM (inactive) | GI50 (LOX IMVI): > 100 µM (inactive) | GI50 (HL-60): 76.2 µM (inactive) | GI50 (HCT-116): > 100 µM (inactive)

Cc1c(C#N)c(=N)oc2ccccc12
GI50 (SK-MEL-2): 84.1 µM (inactive) | GI50 (Malme-3M): > 100 µM (inactive) | GI50 (786-0): > 100 µM (inactive) | GI50 (OVCAR-3): > 100 µM (inactive) | GI50 (U-251): > 100 µM (inactive) | GI50 (T47D): 75.7 µM (inactive) | GI50 (NCI-H226): > 100 µM (inactive) | GI50 (NCI-H23): > 100 µM (inactive) | GI50 (OVCAR-4): > 100 µM (inactive) | GI50 (SK-MEL-5): > 100 µM (inactive) | GI50 (CAKI-1): > 100 µM (inactive) | GI50 (MOLT-4): > 100 µM (inactive) | GI50 (SNB-19): > 100 µM (inactive) | GI50 (CCRF-CEM): > 10 µM (inactive) | GI50 (SNB-75): 57.5 µM (inactive) | GI50 (RPMI-8226): > 100 µM (inactive) | GI50 (HCT-15): 83.2 µM | GI50 (HCC 2998): > 100 µM (inactive) | GI50 (DU-145): > 100 µM (inactive) | GI50 (SF-268): > 100 µM (inactive) | GI50 (OVCAR-8): > 100 µM (inactive) | GI50 (UACC-62): > 100 µM (inactive) | GI50 (SF-539): > 100 µM (inactive) | GI50 (SK-MEL-28): > 100 µM (inactive) | GI50 (A498): > 100 µM (inactive) | GI50 (ACHN): > 100 µM (inactive) | GI50 (NCI-H460): > 100 µM (inactive) | GI50 (TK-10): > 100 µM (inactive) | GI50 (IGROV-1): > 100 µM (inactive) | GI50 (SN12C): > 100 µM (inactive) | GI50 (MCF7): > 100 µM (inactive) | GI50 (M14): > 100 µM (inactive) | GI50 (SF-295): > 100 µM (inactive) | GI50 (BT-549): > 100 µM (inactive) | GI50 (K562): > 100 µM (inactive) | GI50 (HOP-62): 88.9 µM (inactive) | GI50 (EKVX): 49.8 µM (inactive) | GI50 (MDA-MB-231): > 100 µM (inactive) | GI50 (UACC-257): > 100 µM (inactive) | GI50 (MDA-N): > 100 µM (inactive) | GI50 (HT-29): > 100 µM (inactive) | GI50 (SW-620): > 100 µM (inactive) | GI50 (KM12): > 100 µM (inactive) | GI50 (HOP-92): > 100 µM (inactive) | GI50 (SK-OV-3): > 100 µM (inactive) | GI50 (COLO 205): > 100 µM (inactive) | GI50 (RXF 393): > 100 µM (inactive) | GI50 (NCI/ADR-RES): > 100 µM (inactive) | GI50 (MDA-MB-435): > 100 µM (inactive) | GI50 (UO-31): > 100 µM (inactive) | GI50 (PC-3): > 100 µM (inactive) | GI50 (A549): > 100 µM (inactive) | GI50 (Hs-578T): > 100 µM (inactive) | GI50 (OVCAR-5): > 100 µM (inactive) | GI50 (LOX IMVI): > 100 µM (inactive) | GI50 (HL-60): > 100 µM (inactive) | GI50 (HCT-116): > 100 µM (inactive)
